Assay results taken from the NIST ThermoML archive (doi:10.1016/j.fluid.2016.07.004).
± gives the expanded uncertainty stated by the source.

Conditions: Liquid, X-ray view cell

c1ccccc1 [benzene]
Conditions | vapor or sublimation pressure [kPa]
378.35 K | 205 ± 17
401.25 K | 366 ± 30
421.85 K | 572 ± 47
437.45 K | 778 ± 63
460.35 K | 1173 ± 95
480.45 K | 1622 ± 130
500.15 K | 2183 ± 180
520.05 K | 2877 ± 230
